# From US20190201494A1, “COMPOSITIONS AND METHODS FOR TREATING NICOTINE WITHDRAWAL” (STC UNM, priority 2016, published 2019)
# “Also recorded” adds a separate entry of the source.
# Assays:
# [1] = tested on: smokers, 36 hours of smoking abstinence; assay: Replication crossover study: Questionnaire on Smoking Urges-Brief on Day 2 of 36 hours smoking abstinence (Example 2); type: in vivo, human
# Source text: Results from Day 2 are presented. The main differences between Example 1 and Example 2 are: (1) parallel vs crossover design, and (2) placebo content: the parallel design placebo was normal saline, the crossover design was 8.7% NaCl. The purpose of increasing the placebo salt content in the crossover study was to maintain the blind.
# Study participants began their first night of smoking abstinence at 20:00 prior to reporting to the inpatient unit of University of New Mexico Clinical and Translational Science Center at 11:30 the following day. During Day 1 at the hospital, participants provided a CO sample, which had to be 50% of their measurement at screening or less than 7 ppm and a negative breath alcohol test (0.00%). Additional criteria for session continuation included negative urine drug test and vitals within normal limits as described in the “Participants” section above. The study nurse evaluated the nares for abnormalities and checked POC glucose to ensure subjects were within normal limits prior to receiving spray.
# During Day 1, participants were administered spray at 12:40, ate lunch at 13:00 and completed appetite ratings and a snacking test. Participants ate dinner at 19:00 and lights were turned off at 21:00.
# The following morning, participants completed Questionnaire of Smoking Urges at 7:50. Prior to this first questionnaire administration, participants provided a urine sample, which had to be negative for illicit substances, and a CO sample, which had to be either 50% lower than the value on day 1, or less than 7 ppm. An intravenous line was established at 6:45 and a baseline blood sample was drawn. Study nurse checked POC glucose and completed a nares evaluation to confirm participant was within normal limits to receive spray. Spray administration occurred at 8:00, followed by breakfast at 8:20. Post-spray Questionnaire of Smoking Urges was completed at 8:15, 8:45, 9:15, 9:45, 10:30 and 11:30. During this time blood samples were taken for additional analyses. At noon, study nurse evaluated the nares to rule out abnormality and checked POC glucose to ensure that results were within normal limits. The two sessions were separated by one week.
# Urges to smoke were rated using the 10-item Questionnaire on Smoking Urges-Brief (Cox et al., 2001. Nicotine Tob Res 3(1):7-16) that consists of 10-questions. The answers are scored from 1 (strongly disagree) to 7 (strongly agree). These questions are the bases for the two factor derived subscales. Factor 1 subscale reflects a strong desire and intention to smoke with smoking perceived as rewarding. Factor 2 subscale reflects an anticipation of relief from negative affect with an urgent desire to smoke. These two subscales were sub-analyses stemming from our main (overall) QSU-Brief analysis. Cravings were measured at −15, 0, +20, +60, +70, +80, +90 and +120 minutes from spray administration on Day 2.
# Placebo contained 8.7% NaCl. Per FDA approved protocol, the product was prepared in a biosafety cabinet of UNM Translational Radiopharmacy. Drug Preparation occurred 30 minutes before administration. […] or placebo was placed in a 10 mL amber glass bottle (Gerresheimer AG, Düsseldorf, Germany), which was capped with a 10 mg sterile nasal pump (Aero Pump GmbH, Hochheim, Germany). Assembled product was primed per manufacturer's recommendations before 0.6 ml volume was administered to study participants. In a randomized fashion, study nurse administered one spray in each nostril every three minutes for the total of six sprays of either insulin or placebo. As each spray delivers 0.1 ml of fluid, and the concentration of insulin in Novolin R is 100 IU/mL, administering six sprays delivers 60 IU of insulin.
# Random coefficient models were constructed for analyzing study outcomes. Treatment, time, treatment by time interaction, and sequence were included as fixed effects. Time nested within subjects, and time nested within treatment nested within subjects were included as random effects. […]
# [2] = cited from earlier work
substance,measurement,setting,value
"intranasal insulin: bulk human Regular insulin (U100 Novolin R, Novo Nordisk US), 100 IU/ml, six nasal sprays delivering 60 IU","Smoking urges (Questionnaire of Smoking Urges) compared to placebo, replication study","[1]; 60 IU intranasal, crossover, morning of Day 2, 36 hours abstinence, p≤0.05",decreased significantly; also recorded: This finding was replicated
same,"QSU-Brief Factor 2 compared to placebo, replication study","[1]; 60 IU, crossover, Day 2, p=0.18",no effect; also recorded: not Factor 2 scale
same,"QSU-Brief Factor 1 compared to placebo, replication study","[1]; 60 IU, crossover, Day 2, p≤0.05",significantly decreased; also recorded: the effect was driven by intranasal insulin's effect on Factor 1
same,"QSU-Brief Factor 2, effect of treatment, b, replication study","[1]; SE(b)=0.87, z=1.34, p=0.18",1.16
same,"QSU-Brief Factor 1, effect of treatment, b, replication study","[1]; SE(b)=1.15, z=2.16, p≤0.05",2.49
same,"Smoking urges, effect of treatment, b, replication study","[1]; SE(b)=1.91, z=1.92, p≤0.05",3.67
same,CSF insulin levels and peripheral insulin levels after intranasal administration,[2]; humans,increases CSF insulin levels without changing peripheral insulin levels
same,Time to reach the CSF,[2]; intranasal route,within minutes
